Patent US9580391B2, “Saturated acyl guanidine for inhibition of F1F0-ATPase” (Lycera Corporation, priority 2012, dated 2017)

Key:
F1F0-ATPase = biological target: T1, F1F0-ATPase (Bos taurus, UniProt P13621); assay: Inhibition of F1F0-ATPase activity in synthesizing ATP; assay type: biochemical; details: inhibition of ATP synthesis; read-out: ATP Syn IC50
T1 construct: from tissue
Method: (§1) Compounds described in above Examples were tested for activity against F1F0-ATPase by measuring the ability of the compounds to inhibit ATP synthesis. In addition, the compounds were assessed for cytotoxicity in Ramos cells. Inhibition of F1F0-ATPase activity in synthesizing ATP and cytotoxicity in Ramos cells were measured according to the procedures described in K. M. Johnson et al. Chemistry & Biology 2005, 12, 485-496.

Ramos cells = assay: Cytotoxicity in Ramos cells; assay type: cell-based; details: Homo sapiens, read-out: Ramos Cell EC50
Method: as §1

| IC50 (F1F0-ATPase) [µM] | Structure (SMILES) | EC50 (Ramos cells) [µM] |
| --- | --- | --- |
| 5 to 16 | O=C(/N=C(/Nc1cccc(Cl)c1)Nc1ccc2cn[nH]c2c1)C1CCCCC1 [Compound 2, (E)-N-(((1H-Indazol-6-yl)amino)((3-chlorophenyl)amino)methylene)cyclohexanecarboxamide] | 5 to 16 |
| < 5 | CC(C)(C)CC(=O)/N=C(\Nc1cc(-c2ccc(F)cc2)[nH]n1)NC(C)(C)C [Compound 1, (Z)—N-((tert-Butylamino)((5-(4-fluorophenyl)-1H-pyrazol-3-yl)amino)methylene)-3,3-dimethylbutanamide] | 5 to 16 |
| < 5 | O=C(Cc1ccc(Cl)cc1)/N=C(/Nc1cc(F)cc(Cl)c1)Nc1ccc2cn[nH]c2c1 [Compound 3, N-(((1H-Indazol-6-yl)amino)((3-chloro-5-fluorophenyl)amino)methylene)-2-(4-chlorophenyl)acetamide] | 5 to 16 |
